Experimental data taken from ChEMBL document CHEMBL1132276, “Development of predictive retention-activity relationship models of tricyclic antidepressants by micellar liquid chromatography” (J Med Chem, 1999).

Legend:
physchem [1] = settings: octanol/water
[2] = Compound was tested for its binding affinity towards brain (neocortex) Adenylate cyclase; parameters: species or system Cavia porcellus
[3] = Compound was tested for its inhibitory activity against Noradrenaline receptor; parameters: species or system Rattus norvegicus
[4] = Half life period is estimated; format: ADME
Histamine H2 receptor = Histamine H2 receptor (Cavia porcellus, UniProt P47747); test: Inhibitory activity against brain adenylate cyclase Histamine H2 receptor; format: functional
Sequence of Histamine H2 receptor (P47747 whole entry): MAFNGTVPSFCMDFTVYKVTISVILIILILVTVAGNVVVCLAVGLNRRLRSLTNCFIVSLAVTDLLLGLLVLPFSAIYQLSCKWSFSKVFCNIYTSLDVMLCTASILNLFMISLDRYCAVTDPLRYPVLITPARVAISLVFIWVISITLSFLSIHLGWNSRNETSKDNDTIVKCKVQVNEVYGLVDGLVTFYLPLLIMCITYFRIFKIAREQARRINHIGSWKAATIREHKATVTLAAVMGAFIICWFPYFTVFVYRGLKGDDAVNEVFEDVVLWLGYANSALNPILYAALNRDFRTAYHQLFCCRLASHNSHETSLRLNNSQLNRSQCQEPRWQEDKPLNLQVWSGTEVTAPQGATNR

[5] = Protonation constant of the compound.; format: ADME
[6] = target: T1, Alpha-1A adrenergic receptor (Rattus norvegicus, UniProt P43140); test: Compound was tested for its inhibitory activity against Alpha-1 adrenergic receptor
T1 sequence (P43140 whole entry): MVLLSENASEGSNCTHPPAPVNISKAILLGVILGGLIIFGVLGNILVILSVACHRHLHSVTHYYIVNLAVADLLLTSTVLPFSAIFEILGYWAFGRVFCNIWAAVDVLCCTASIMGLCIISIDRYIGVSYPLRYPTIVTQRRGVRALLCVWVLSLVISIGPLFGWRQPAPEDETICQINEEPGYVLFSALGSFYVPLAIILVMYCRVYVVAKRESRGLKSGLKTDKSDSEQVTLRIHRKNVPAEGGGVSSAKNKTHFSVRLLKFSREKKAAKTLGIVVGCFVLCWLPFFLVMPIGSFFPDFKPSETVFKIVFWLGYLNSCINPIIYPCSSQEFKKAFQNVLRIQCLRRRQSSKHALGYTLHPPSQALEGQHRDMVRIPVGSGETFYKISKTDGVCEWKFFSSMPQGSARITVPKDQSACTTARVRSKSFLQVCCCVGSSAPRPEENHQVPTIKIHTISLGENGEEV

physchem [7] = settings: buffer, pH 7.4
Description: log P values determined at pH 7.4

[8] = log k (capacity factor) was measured by micellar liquid chromatography in Brij35 medium; settings: 0.04 M Brij35
in vivo = settings: plasma
Description: Plasma clearance for the compound was determined.

[9] = Compound was tested for its binding affinity towards brain (Hippocampus) Adenylate cyclase; parameters: species or system Cavia porcellus
[10] = Volume of distribution in the plasma fluid was determined; format: ADME, organism-based
Histamine H1 receptor = Histamine H1 receptor (Rattus norvegicus, UniProt P31390); test: Compound tested for its inhibitory activity against Histamine H1 receptor
Sequence of Histamine H1 receptor (P31390 whole entry): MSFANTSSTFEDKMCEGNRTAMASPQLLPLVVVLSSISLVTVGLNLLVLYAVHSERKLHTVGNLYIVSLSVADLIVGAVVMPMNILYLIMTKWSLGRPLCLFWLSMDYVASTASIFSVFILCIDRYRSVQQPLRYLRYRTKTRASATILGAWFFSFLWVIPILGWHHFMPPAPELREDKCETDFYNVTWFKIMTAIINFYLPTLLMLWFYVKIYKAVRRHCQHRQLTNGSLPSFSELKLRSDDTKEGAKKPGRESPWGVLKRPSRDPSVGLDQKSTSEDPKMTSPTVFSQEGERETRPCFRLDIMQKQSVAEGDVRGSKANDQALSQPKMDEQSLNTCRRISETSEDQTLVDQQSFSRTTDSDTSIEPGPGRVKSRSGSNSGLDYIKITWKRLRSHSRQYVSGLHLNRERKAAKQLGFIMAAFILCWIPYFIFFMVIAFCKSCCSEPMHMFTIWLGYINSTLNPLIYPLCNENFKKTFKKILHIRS

[11] = target: Serotonin (5-HT) receptor; test: Compound was tested for its inhibitory activity against 5-hydroxytryptamine receptor; format: protein assay, Rattus norvegicus
[12] = Therapeutic plasma levels for the compound was evaluated.; format: ADME, cell-free
[13] = buffer, pH 7.4
Description: log P values determined at pH 7.4

[14] = Partition coefficient (logP); format: physicochemical; settings: octanol/water
[15] = log P value at pH 7.4; format: physicochemical; settings: buffer
[16] = Protonation constant by using Brij35 as a medium; format: ADME
[17] = octanol/water

| Structure (SMILES) | logP (physchem [1]) | Ki [2] | IC50 [3] | half-life [4] | IC50 (Histamine H2 receptor) | pKa [5] | IC50 [6] | logD (physchem [7]) | Log K [8] | clearance (in vivo) | Ki [9] | Vd [10] | IC50 (Histamine H1 receptor) | IC50 [11] | T.P.L [12] | logD [13] | logP [14] | logD [15] | pKa [16] | logP [17] |
| --- | --- | --- | --- | --- | --- | --- | --- | --- | --- | --- | --- | --- | --- | --- | --- | --- | --- | --- | --- | --- |
| CN(C)CC/C=C1/c2ccccc2COc2ccccc21 [DOXEPIN] | 3.88 | 190 nM | 65 nM | 16.5 h | 1600 nM | 9 | 10 nM | 2.27 | 1.69 | 850 mL/min | 170 nM |  |  |  |  |  |  |  |  |  |
| CN1CCN(C2=Nc3ccccc3Oc3ccc(Cl)cc32)CC1 [LOXAPINE] |  |  |  |  |  | 6.6 |  |  | 1.86 |  |  |  |  |  |  |  |  |  |  |  |
| CN(C)CCC=C1c2ccccc2CSc2ccccc21 [DOTHIEPIN] | 4.52 |  |  |  |  | 9.25 |  | 2.66 | 1.74 |  |  |  |  |  |  |  |  |  |  |  |
| CN(C)CCC=C1c2ccccc2CCc2ccccc21 [AMITRIPTYLINE] | 4.64 | 60 nM | 41 nM | 27.5 h | 660 nM | 9.42 | 20 nM | 2.62 | 1.84 | 1200 mL/min | 53 nM | 15 L/kg | 20 nM | 44 nM | 180 ng/mL |  |  |  |  |  |
| CN(C)CCC=C1c2ccccc2C(C)(C)c2ccccc21 | 5.12 |  |  |  |  | 7.38 |  | 4.83 | 1.97 |  |  |  |  |  |  |  |  |  |  |  |
| CNCCC=C1c2ccccc2CCc2ccccc21 [NORTRIPTYLINE] | 4.32 | 280 nM | 9 nM | 35.5 h | 7000 nM | 9.7 | 40 nM | 2.02 | 1.52 | 1320 mL/min | 450 nM | 35 L/kg | 50 nM |  |  |  |  |  |  |  |
| Clc1ccc2c(c1)C(N1CCNCC1)=Nc1ccccc1O2 [AMOXAPINE] | 3.89 |  |  |  |  | 7.6 |  |  | 1.63 |  |  |  |  |  |  | 3.48 |  |  |  |  |
| O=C(O)CCCCCCNC1c2ccccc2CCc2ccccc21 [AMINEPTINE] |  |  |  |  |  |  |  |  | 1.09 |  |  |  |  |  |  |  | 2.44 | 2.26 | 5.24 |  |
| CNCCCC12CCC(c3ccccc31)c1ccccc12 [MAPROTILINE] | 4.22 |  |  |  |  | 10.5 |  | 1.12 | 1.47 |  |  |  |  |  |  |  |  |  |  |  |
| CN1CCN2c3ccccc3Cc3ccccc3C2C1 (stereo not given) [MIANSERIN] | 4.26 | 71 nM |  | 25 h | 880 nM | 7.1 |  | 4.08 | 1.87 |  | 65 nM | 16 L/kg |  |  |  |  |  |  |  |  |
| CC(CN(C)C)CN1c2ccccc2CCc2ccccc21 (stereo not given) [TRIMIPRAMINE] | 4.73 |  |  |  |  |  |  |  | 1.86 |  |  |  |  |  |  | 4.64 |  |  | 6.77 |  |
| CN(C)CCCN1c2ccccc2CCc2ccc(Cl)cc21 [CLOMIPRAMINE] |  | 43 nM | 46 nM |  | 720 nM | 9.38 |  | 3.32 | 1.89 | 1210 mL/min | 55 nM | 13.5 L/kg |  |  | 90 ng/mL |  |  |  |  | 5.19 |
| CN(C)CCCN1c2ccccc2CCc2ccccc21 [IMIPRAMINE] |  | 160 nM | 46 nM |  | 1900 nM |  |  |  | 1.8 |  | 160 nM | 30 L/kg | 60 nM |  | 275 ng/mL |  |  |  |  |  |
| CNCCCN1c2ccccc2CCc2ccccc21 [DESIPRAMINE] |  | 320 nM | 2 nM | 37.5 h | 3800 nM |  |  |  | 1.46 |  | 350 nM | 22 L/kg |  |  | 212.5 ng/mL |  |  |  |  |  |
| c1ccc2c(c1)CCc1ccccc1N2C1CN2CCC1CC2 (stereo not given) [QUINUPRAMINE] | 4.94 |  |  |  |  |  |  | 1.36 | 1.62 |  |  |  |  |  |  |  |  |  | 7.85 |  |
